Laboratory results published in patent publication US12655141B2, “Inhibitors of notch signaling pathway and use thereof in treatment of cancers” (Cellestia Biotech AG, priority 2019, dated 2026).

How the values were obtained:
[1] = test system: NOTCH positive/driven human T cell acute lymphoblastic leukemia cell line RPMI 8402; test: Alamar blue anti-proliferative assay; assay type: cell-based; conditions: Homo sapiens, RPMI 8402, RPMI8402, 72 hours, concentration range 0.01-10 μM
Procedure: Alamarblue® and PrestoBlue proliferation assays were performed to determine the growth kinetics of Notch inhibitor treated cells. Alamar Blue® and PrestoBlue consists of a cell permeable substrate resazurin. In metabolically active and proliferating cells, resazurin is converted to resorufin due to an intrinsic reducing power of live cells and produces a red fluorescence. Therefore production of resorufin serves as an indicator of the viability of the cell population.
Proliferation assays were performed by seeding 5000 cells/well in a 96 well plate. Cells were treated with DMSO or compounds for 72 hours using concentration ranges of 0.01-10 μM. Each concentration was tested in 4 replicates. To determine the growth kinetics, 10 μl of Alamar Blue® or PrestoBlue (Invitrogen) was added to each well and incubated for 4 hours. Readout was taken using Tecan F500 (Tecan) multiplate reader or Varioskan LUX (ThermoFisher) multiplate reader.
In order to determine anti-cancer potency of compounds compared to 6-(4-tert-butylphenoxy)pyridin-3-amine (described in WO2013/093885), NOTCH positive/driven human T cell acute lymphoblastic leukemia cell line RPMI 8402 was treated with selected compounds.

[2] = test system: N1-ICD (cleaved and active NOTCH1 Intracellular Domain); test: Western blot of RPMI8402 protein lysates: N1-ICD; assay type: cell-based, human; conditions: NOTCH positive leukemic cells, 1 μM, 24 hours, FIGS. 2 and 3
Procedure: (§1) One million human NOTCH positive T-ALL cell line RPMI8402 were treated with NOTCH targeting compounds at 1 μM concentration for 24 hours. Following treatment cells were harvested and washed with 1×PBS. Total RNA and total protein lysates were extracted as described below.
(§2) Cells were lysed in RIPA buffer (50 mM Tris·Cl, pH 7.5, 150 mM NaCl, 1% nonidet P-40, 0.5% sodium deoxycholate and 0.1% SDS) for 30 minutes at 4° C. Lysed cells were centrifuged to remove the debris at 14000 rpm at 4° C. Supernatant was transferred to a new eppendorf tube. The protein concentration was determined by Bradford assay using spectrophotometer (Ultrospec 3000 pro).
(§3) Initially for western blotting, 40 μg of protein were denatured in 1×SDS gel loading buffer (100 mM Tris·Cl, pH 6.8, 200 mM DTT, 4% SDS, 0.2% bromophenol, 20% glycerol) by heating at 99° C. for 5 minutes. Denatured protein samples were stored on ice until loading on to the acrylamide gel. The samples were run on 8% or 10% acrylamide gel in Tris-glycine electrophoresis buffer (25 mM Tris, 250 mM glycine, 0.1% SDS). Following separation on the acrylamide gel, protein samples were transferred on to PVDF membrane (PEQ lab, catalog number 39-3010) using transfer buffer (39 mM glycine, 48 mM Tris base, 0.037% SDS and 20% methanol).
(§4) For immunoblotting, membranes were blocked with 5% milk and incubated overnight with primary antibodies at 4° C. Membrane were washed with 1×TBST (1×TBS+0.5 tween 20) for 5 minutes (3 times) and incubated with HRP-conjugated secondary antibodies for one hour at room temperature. Signal was detected with Super Signal West chemiluminescent substrate (Thermo Scientific, catalog number 34077).
(§5) Total protein lysates were analysed by western blot analysis using N1-ICD (cleaved and active NOTCH1 Intracellular Domain), cMYC and ACTIN specific antibodies.

cMYC = test: Western blot of RPMI8402 protein lysates: cMYC; assay type: cell-based, human; conditions: NOTCH positive leukemic cells, 1 μM, 24 hours, FIGS. 2 and 3
Procedure: as §1, §2, §3, §4, §5

NOTCH pathway = test: Western blot, downregulation of NOTCH pathway (N1-ICD and cMYC), FIG. 2 and 3; assay type: cell-based, human; conditions: RPMI8402, 1 μM, 24 hours
Procedure: NOTCH positive human leukemic RPMI8402 cells were treated with 1 μM of 6-(4-tert-butylphenoxy)pyridin-3-amine and 6-([1,1′-Biphenyl]-4-yloxy)-N-methylpyridin-3-amine for 24 hours. Following treatment, total protein lysates were extracted and protein expression analysed by western blot.
NOTCH positive human leukemic RPMI8402 cells were treated with 1 μM of 6-(4-tert-butylphenoxy)pyridin-3-amine and 6-((4′-Fluoro-[1,1′-biphenyl]-4-yl)oxy)pyridin-3-amine, 6-([1,1′-Biphenyl]-4-yloxy)-4-methylpyridin-3-amine, 6-([1,1′-Biphenyl]-4-yloxy)-2-methylpyridin-3-amine and N-Methyl-6-((6-phenylpyridin-3-yl)oxy)pyridin-3-amine for 24 hours. Following treatment, total protein lysates were extracted and protein expression analysed by western blot.
as §1, §2, §3, §4

| Structure (SMILES) | IC50 [1] | downregulation of N1-ICD compared to 6-(4-tert-butylphenoxy)pyridin-3-amine [2] | downregulation of cMYC compared to 6-(4-tert-butylphenoxy)pyridin-3-amine (cMYC) | potency in downregulating NOTCH pathway compared with 6-(4-tert-butylphenoxy)pyridin-3-amine (NOTCH pathway) |
| --- | --- | --- | --- | --- |
| CNc1ccc(Oc2ccc(-c3ccccc3)cc2)nc1 [Example 2, 6-([1,1′-Biphenyl]-4-yloxy)-N-methylpyridin-3-amine] | 110 nM | stronger downregulation | stronger downregulation | enhanced potency |
| Cc1nc(Oc2ccc(-c3ccccc3)cc2)ccc1N [Example 8, 6-([1,1′-Biphenyl]-4-yloxy)-2-methylpyridin-3-amine] | 110 nM | stronger downregulation | stronger downregulation | enhanced potency |
| Cc1cc(Oc2ccc(-c3ccccc3)cc2)ncc1N [Example 9, 6-([1,1′-Biphenyl]-4-yloxy)-4-methylpyridin-3-amine] | 110 nM | stronger downregulation | stronger downregulation | enhanced potency |
| Nc1ccc(Oc2ccc(-c3ccc(F)cc3)cc2)nc1 [Example 10, 6-((4′-Fluoro-[1,1′-biphenyl]-4-yl)oxy)pyridin-3-amine] | 83 nM | stronger downregulation | stronger downregulation | enhanced potency |
| CNc1ccc(Oc2ccc(-c3ccccc3)nc2)nc1 [Example 23, N-Methyl-6-((6-phenylpyridin-3-yl)oxy)pyridin-3-amine] | 500 nM | stronger downregulation | stronger downregulation | enhanced potency |
